Results published in the OPERA property sets (Mansouri et al. 2018).

Row | Structure (SMILES) | logP
1 | CCCCOCc1cc(=O)c(O)co1 | 0.78
2 | NCCn1ccc(=O)c(O)c1 | -0.66
3 | O=c1ccocc1O | -0.92
4 | Cc1cc(=O)c(O)co1 | -0.59
5 | CCn1cccc(O)c1=O | 0.2
6 | CCCOCc1cc(=O)c(O)co1 | 0.3
7 | CCc1oc(C)cc(=O)c1O | 1.07
8 | COCc1cc(=O)c(O)co1 | -0.62
9 | CCOCc1cc(=O)c(O)co1 | -0.38
10 | CCCn1cccc(O)c1=O | 0.69
11 | CCc1occc(=O)c1O | 0.63
12 | Cc1cc(=O)c(O)c(C)o1 | 0.44
